Assay [1] addresses T1, wild-type CfEcR (GAL4-CfEcR-DEF with VP16-RXR-USP chimera) (Choristoneura fumiferana, UniProt O77255).
T1 sequence (O77255 219-541): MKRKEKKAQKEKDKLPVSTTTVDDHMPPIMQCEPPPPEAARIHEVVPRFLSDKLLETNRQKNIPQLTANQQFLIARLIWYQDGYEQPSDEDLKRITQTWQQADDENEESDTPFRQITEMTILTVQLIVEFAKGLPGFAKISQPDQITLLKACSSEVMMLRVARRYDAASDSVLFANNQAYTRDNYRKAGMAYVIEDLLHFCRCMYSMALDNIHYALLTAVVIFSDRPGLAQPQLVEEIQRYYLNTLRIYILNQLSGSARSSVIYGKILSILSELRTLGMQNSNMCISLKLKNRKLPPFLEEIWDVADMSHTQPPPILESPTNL
T1 sequence (P28702 1-533 partner): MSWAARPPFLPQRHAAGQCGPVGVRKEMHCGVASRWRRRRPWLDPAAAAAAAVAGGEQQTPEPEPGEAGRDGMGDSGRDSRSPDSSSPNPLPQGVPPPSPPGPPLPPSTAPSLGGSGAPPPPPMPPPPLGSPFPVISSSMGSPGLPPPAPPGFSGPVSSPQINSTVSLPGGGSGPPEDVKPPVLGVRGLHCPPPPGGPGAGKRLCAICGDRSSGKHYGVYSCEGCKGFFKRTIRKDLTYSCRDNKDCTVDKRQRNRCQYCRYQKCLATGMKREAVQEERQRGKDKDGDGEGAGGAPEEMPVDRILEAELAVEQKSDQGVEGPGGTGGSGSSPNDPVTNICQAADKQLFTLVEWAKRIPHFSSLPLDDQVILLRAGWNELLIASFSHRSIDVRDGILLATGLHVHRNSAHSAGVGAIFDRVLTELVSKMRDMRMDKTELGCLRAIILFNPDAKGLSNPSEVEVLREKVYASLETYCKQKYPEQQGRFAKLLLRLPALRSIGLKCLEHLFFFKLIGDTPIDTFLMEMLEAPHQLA
Put plainly: Two-hybrid gene switch assay, luciferase reporter, wild-type CfEcR, mouse NIH3T3 cells.

Assay [2] has as its target wild-type Aedes aegypti EcR (AaEcR; GAL4-EcR DEF with VP16-RXR-USP chimera) (Aedes aegypti, UniProt P49880). Description: Two-hybrid gene switch assay, luciferase reporter, wild-type AaEcR, mouse NIH3T3 cells. Type of assay: cell-based. For orientation: Reporter assays use an easily measured gene product as a stand-in for the process of interest.
The target of assay [3] is wild-type Drosophila melanogaster EcR (DmEcR; GAL4-EcR DEF with VP16-RXR-USP chimera) (Drosophila melanogaster, UniProt P34021). Description: Two-hybrid gene switch assay, luciferase reporter, wild-type DmEcR, mouse NIH3T3 cells. Format: cell-based. The following applies: EC50, FIG. 8.
wild-type Drosophila melanogaster EcR (DmEcR; GAL4-EcR DEF with VP16-RXR-USP chimera), sequence (P34021 with tags, fused parts or gaps limits assumed): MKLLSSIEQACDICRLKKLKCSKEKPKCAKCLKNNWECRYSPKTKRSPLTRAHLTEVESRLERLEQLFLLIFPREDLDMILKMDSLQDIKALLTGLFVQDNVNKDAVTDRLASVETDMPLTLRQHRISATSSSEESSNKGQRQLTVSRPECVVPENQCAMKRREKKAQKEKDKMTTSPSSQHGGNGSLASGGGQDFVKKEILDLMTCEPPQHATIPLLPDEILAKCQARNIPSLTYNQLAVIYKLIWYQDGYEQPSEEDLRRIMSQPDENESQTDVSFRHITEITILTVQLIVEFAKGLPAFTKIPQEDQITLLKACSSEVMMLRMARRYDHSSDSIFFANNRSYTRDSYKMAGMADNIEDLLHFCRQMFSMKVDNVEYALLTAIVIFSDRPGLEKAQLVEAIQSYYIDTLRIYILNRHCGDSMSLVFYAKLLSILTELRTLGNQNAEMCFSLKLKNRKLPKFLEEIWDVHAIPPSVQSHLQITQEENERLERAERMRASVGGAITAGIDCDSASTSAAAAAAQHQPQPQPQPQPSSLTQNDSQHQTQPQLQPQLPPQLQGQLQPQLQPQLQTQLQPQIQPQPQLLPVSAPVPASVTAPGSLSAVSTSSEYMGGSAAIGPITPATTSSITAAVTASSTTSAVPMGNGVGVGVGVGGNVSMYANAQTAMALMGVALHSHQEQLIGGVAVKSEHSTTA
For assay [4], the target named is T2, wild-type Choristoneura fumiferana EcR (CfEcR-DEF) (Choristoneura fumiferana, UniProt O77255).
T2 sequence (O77255 219-541): T1 sequence (O77255 219-541) with A230E
T2 sequence (P28702 299-449 partner): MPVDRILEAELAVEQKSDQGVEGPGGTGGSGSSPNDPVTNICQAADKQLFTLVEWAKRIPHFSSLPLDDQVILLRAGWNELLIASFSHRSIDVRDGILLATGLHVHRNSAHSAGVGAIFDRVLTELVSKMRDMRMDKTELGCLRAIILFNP
Put plainly: Two-hybrid gene switch assay, wild-type CfEcR-DEF (GAL4-EcR / VP16-RXR-USP chimera, luciferase) in NIH3T3 cells. The following applies: for Emax: NIH3T3, 48 h, read-out: rel max FI (diacylhydrazine), CF.

Each structure is given as a SMILES string. Numbering of substitutions follows the chain as printed. pEC50: −log10 of the molar value. Read-outs that look alike come from different tables or passages of the source.

By pEC50 is commonly meant the negative decadic logarithm of the EC50, by convention in mol/L.

wild-type Aedes aegypti EcR (AaEcR; GAL4-EcR DEF with VP16-RXR-USP chimera), sequence (P49880 with tags, fused parts or gaps limits assumed, change not shown): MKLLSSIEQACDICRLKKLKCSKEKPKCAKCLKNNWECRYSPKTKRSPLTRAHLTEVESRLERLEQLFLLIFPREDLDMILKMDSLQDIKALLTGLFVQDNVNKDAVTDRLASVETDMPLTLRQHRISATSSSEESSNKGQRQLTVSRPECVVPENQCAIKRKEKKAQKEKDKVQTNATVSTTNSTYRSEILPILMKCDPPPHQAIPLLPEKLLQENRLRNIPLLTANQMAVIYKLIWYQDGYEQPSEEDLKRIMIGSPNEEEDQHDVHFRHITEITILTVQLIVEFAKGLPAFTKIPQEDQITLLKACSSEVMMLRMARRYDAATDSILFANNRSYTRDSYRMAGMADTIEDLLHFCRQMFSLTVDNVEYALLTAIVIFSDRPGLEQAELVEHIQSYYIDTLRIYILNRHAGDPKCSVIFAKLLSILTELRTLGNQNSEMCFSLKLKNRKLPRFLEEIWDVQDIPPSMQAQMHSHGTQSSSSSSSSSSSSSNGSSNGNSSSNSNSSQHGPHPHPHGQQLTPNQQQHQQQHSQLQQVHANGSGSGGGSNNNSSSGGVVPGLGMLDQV

As to `CC(C(O)CCC(C)(C)O)C1CCC2(O)C3=CC(=O)C4CC(O)C(O)CC4(C)C3CCC12C` (stereo not drawn) [Compound 24], the pEC50 in assay [1] is less than 4.48.
Take `CC(C)(O)CC[C@@H](O)[C@](C)(O)[C@H]1CC[C@@]2(O)C3=CC(=O)[C@@H]4C[C@@H](O)[C@@H](O)C[C@]4(C)[C@H]3CC[C@]12C` [Compound 25]: the negative logarithm of the EC50 (pEC50) in assay [2] (FIG. 8, read-out: EC50) was 6.03.
As for `CC(C)(O)CC[C@@H](OCc1ccccc1)[C@](C)(O)C1CC[C@@]2(O)C3=CC(=O)C4C[C@@H](O)[C@@H](O)CC4(C)C3CCC12C` (stereo partly drawn) [Compound 9], in assay [1], the pEC50 is less than 4.48.
`CO[C@H](CCC(C)C)[C@](C)(O)[C@H]1CC[C@@]2(OC)C3=CC(=O)[C@@H]4C[C@@H](O)[C@@H](O)C[C@]4(C)[C@H]3CC[C@]12C` [Compound 21] showed a pEC50 in assay [1] of less than 4.48.
Same read-out and setting: under `CO[C@H]1CC2(C)C(C[C@H]1OC)C(=O)C=C1C2CCC2(C)C([C@@](C)(O)[C@@H](CCC(C)(C)O)OC)CC[C@@]12OC` (stereo partly drawn) [Compound 15] stands less than 4.48; under `CO[C@@]12CC[C@H]([C@@](C)(O)[C@H](O)CCC(C)C)[C@@]1(C)CC[C@H]1C2=CC(=O)[C@@H]2C[C@@H](O)[C@@H](O)C[C@@]21C` [Compound 17], roughly 4.70; under `CO[C@H]1C[C@@]2(C)[C@@H](C[C@H]1O)C(=O)C=C1[C@@H]2CC[C@]2(C)[C@@H]([C@@](C)(O)[C@@H](CCC(C)C)OC)CC[C@@]12O` [Compound 19], 4.56.
Take `CCCCO[C@H](CCC(C)(C)O)[C@](C)(O)C1CC[C@@]2(O)C3=CC(=O)C4C[C@@H](O)[C@@H](O)CC4(C)C3CCC12C` (stereo partly drawn) [Compound 8]: the pEC50 in assay [3] was 4.84; in assay [2] (FIG. 8, read-out: EC50), 5.57; in assay [1] it was less than 4.48.
Regarding `CCO[C@H](CCC(C)(C)O)[C@](C)(O)C1CC[C@@]2(O)C3=CC(=O)C4C[C@@H](O)[C@@H](O)CC4(C)C3CCC12C` (stereo partly drawn) [20E-22-ethyl ether], the Emax in assay [4] is 77%.
On to `COC(C)(C)CC[C@@H](O)[C@](C)(O)[C@H]1CC[C@@]2(O)C3=CC(=O)[C@@H]4C[C@@H](O)[C@@H](O)C[C@]4(C)[C@H]3CC[C@]12C` [Compound 10], for which the pEC50 in assay [3] is 5.26; in assay [2] (EC50, FIG. 8), roughly 6.52.
`C=CCO[C@H](CCC(C)(C)O)[C@](C)(O)C1CC[C@@]2(O)C3=CC(=O)C4C[C@@H](O)[C@@H](O)CC4(C)C3CCC12C` (stereo partly drawn) [Compound 7]: the negative-log EC50 (pEC50) is roughly 5.30 in assay [3] and less than 4.48 in assay [1].
`COC(C)(C)CCC(O)C(C)(O)C1CCC2(O)C3=CC(=O)C4CC(O)C(O)CC4(C)C3CCC12C` (stereo not drawn) [20E-25-methyl ether]: in assay [4], the pEC50 was less than 4.48 and the Emax is 0.13%.
`CO[C@H](CCC(C)(C)OC)[C@](C)(O)[C@H]1CC[C@@]2(O)C3=CC(=O)[C@@H]4C[C@@H](O)[C@@H](O)C[C@]4(C)[C@H]3CC[C@]12C` [Compound 14]: the pEC50 was 5.80 in assay [3] and less than 4.48 in assay [1].
`CC(C)(O)CC[C@@H](O)[C@](C)(O)[C@H]1CC[C@@]2(O)C3=CC(=O)[C@]4(O)C[C@@H](O)[C@@H](O)C[C@]4(C)[C@H]3CC[C@]12C` [polypodine B, reference compound] had a pEC50 in assay [4] (wt-CfEcR gene switch, NIH3T3, Example One) of roughly 4.92.
For `CC(C)CCC(O)C(C)(O)C1CCC2(O)C3=CC(=O)C4(O)CC(O)C(O)CC4(C)C3C(O)CC12C` (stereo not drawn) [Compound 28], the pEC50 in assay [3] was 6.95.
The compound `CO[C@H](CCC(C)C)[C@](C)(O)C1CC[C@@]2(O)C3=CC(=O)C4C[C@@H](O)[C@@H](O)CC4(C)C3=CCC12C` (stereo partly drawn) [Compound 22] gave a pEC50 in assay [1] of 4.86.
For the compound `CCCO[C@H](CCC(C)(C)O)[C@](C)(O)C1CC[C@@]2(O)C3=CC(=O)C4C[C@@H](O)[C@@H](O)CC4(C)C3CCC12C` (stereo partly drawn) [20E-22-n-propyl ether], in assay [4], the pEC50 was less than 4.48 and the Emax was determined as 0.5%.
